Tests used:
[1] = tested on: MS patients; assay: Treatment of individual MS patients with the medication (case reports, Patients A, B, C); assay type: in vivo, human; settings: Patient C; low dose naltrexone 3 mg daily before the medication
Text: Diagnosis was confirmed by an MRI of their brain, lumbar puncture, and visual evolved response.

[2] = tested on: MS patients; settings: LDN alone; cited from earlier work

Question: With `O=C1CC[C@@]2(O)[C@H]3Cc4ccc(O)c5c4[C@@]2(CCN3CC2CC2)[C@H]1O5` [low dose naltrexone, naltrexone] as the compound, how does the “improvement under earlier treatment” value [1] read?
Answer: no improvement

Question: And the “improvement of physical ability” value [2]?
Answer: no improvement of physical ability

From patent US8865733B2, “Medication and treatment for disease” (Altman Enterprises, LLC, priority 2008, dated 2014)
